# From US9365597B2, “Mitochondria-targeted inhibitors of cytochrome c peroxidase for protection from apoptosis” (Brock University, priority 2011, dated 2016)
# Legend:
# [1] = test system: C57BL/6NTac female mice; experiment: Survival of mice after 9.25 Gy total body irradiation, linear accelerator; format: in vivo, mouse; conditions: for Overall Survival (52 days): p versus irradiated mice / Survival Over First 20 Days: p versus irradiated mice: log-rank
# Protocol: C57BL/6NTac female mice were exposed to total body irradiation to a dose of 9.25 Gy using a linear accelerator (n=10-23 mice per group). The mice were injected i.p. with TPP-IOA (5 mg per kg body weight in 100 μl of water containing 25% ethanol) at 1 h or 10 min before irradiation or 10 min, 5 or 24 h after irradiation. Mice exposed to: total body irradiation at the dose of 9.25 Gy only (black circles); to total body irradiation at the dose of 9.25 Gy and injected with TPP-IOA (5 mg per kg body weight) 10 min (grey circles), 5 h (downward-pointing triangles) and 24 h (lower grey squares) thereafter. Mice injected with TPP-IOA (5 mg per kg body weight) 10 min (upper grey squares) and 1 h (upward-pointing triangles) before total body irradiation (9.25 Gy).
# C57BL/6NTac female mice were anaesthetized with Nembutal (1 mg per 20 g mouse), irradiated to a total body dose of 9.25 Gy using either a Shepherd Mark 1 Model 68 cesium irradiator at a dose rate of 80 cGy min^−1 (31-35 mice per group) or a Varian TrueBeam linear accelerator (Varian Medical Systems) at 100 monitor units or 100 cGy min^−1 using 6 MV photons with a 40 cm×40 cm field at 100 SSD (10-23 mice per group). Mice were injected intraperitoneally (i.p.) with 5 mg per kg body weight of TPP-IOA in a 100 μl volume of water containing 25% ethanol at 1 h before irradiation, 10 min before irradiation, 10 min after irradiation, 5 h after irradiation and 24 h after irradiation. Other groups were injected i.p. with 2.5 mg per kg body weight of TPP-IOA or 5 mg per kg body weight of TPP-ISA 10 min after irradiation. The mice were followed for the development of haematopoietic syndrome (at which time they were killed).
# The log-rank test was used for three analyses: the comparison of overall survival that is defined as the time from the date of radiation to the date of death for all mice under study; the comparison of short-term survival over the first 20 days, that is, the overall survival count at 20 days; and the comparison of conditional survival in mice surviving 20 or more days, that is, the time from the date of radiation to the date of death for all mice who survived 20 days or longer after radiation. All these comparisons were made between each of the treated groups and the radiation-only control group.
# [2] = test system: mouse embryonic cells; experiment: γ-Irradiation induced apoptosis in mouse embryonic cells (PS externalization Annexin V/PI, caspase 3/7, cyt c release); format: cell-based; conditions: for necrotic cells (PI-positive, Annexin V-positive) after irradiation and treatment / apoptotic cells (PI-negative, Annexin V-positive) after irradiation and treatment: 10 Gy; for necrotic cells (PI-positive, Annexin V-positive) after irradiation and treatment: irradiated only 12.9%; for apoptotic cells (PI-negative, Annexin V-positive) after irradiation and treatment: irradiated only 28.9%
# Protocol: Mouse embryonic cells were seeded on a 35 mm dish at a cell density of 5×10^4/dish, and allowed to attach overnight. The cells were γ-irradiated at a dose of 10 Gy using a Shepherd model 143-45A irradiator (J.L. Shepherd & Associates, CA). Ten min after irradiation, different concentrations of TPP-ISA or TPP-IOA (2.5 and 5 μM) were added and cells were incubated at 37° C. in 5% CO2 for 48 h. Then, cells were harvested for measuring phosphatidylserine externalization by an Annexin V/PI kit and caspase 3/7 activity using a Caspase-Glo® 3/7 Assay kit. Data are means±S.D., n=3. *p<0.01 vs. irradiated only cells.
# Phosphatidylserine externalization was determined by an Annexin V-FITC apoptosis detection kit (Biovision) according to the manufacturer's instructions.
# Caspase-3/7 activity was measured using a luminescence Caspase-Glo 3/7 assay kit (Promega) according to the manufacturer's instructions.
# Cells were collected after 48 h post-irradiation incubation and resuspended in lysis buffer containing 0.05% digitonin for 4 min on ice. Supernatants were collected after centrifugation for 10 min at 10,000 g. Equal amounts of protein were subject to 15% SDS-PAGE, transferred onto a nitrocellulose membrane, and probed with antibodies against cyt c (clone 7H, 8.2; C12, BD Pharmingen) or actin (Novus) (loading control) followed by horseradish peroxidase-coupled detection. The protein band profile was analysed by densitometry using Labworks image acquisition and analysis software (UVP).
# [3] = biological target: T1, cyt c/TLCL (Equus caballus, UniProt P00004); experiment: cyt c/H2O2-induced TLCL (tetra-linoleoyl-cardiolipin) peroxidation, ESI-MS; format: biochemical; conditions: for inhibition of cyt c/H2O2-induced oxidation of TLCL: cyt c 4 μM, TLCL 100 μM, H2O2 80 μM, 10 min, 37° C.; for oxidation of TLCL at ratio of cyt c to compound of 1:20: cyt c:compound 1:20
# T1 construct: purchased Sigma (St. Louis, Mo.)
# T1 sequence (P00004 2-105 limits assumed): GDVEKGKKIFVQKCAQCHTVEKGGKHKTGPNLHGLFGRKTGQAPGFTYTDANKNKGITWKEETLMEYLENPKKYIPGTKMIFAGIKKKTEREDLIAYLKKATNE
# Protocol: For measurement of TLCL oxidation, cyt c (4 μM) was incubated with TLCL (100 μM) containing liposomes (TLCL/cyt c ratio-20:1) and H2O2 (80 μM) for 10 min at 37° C. The reaction was stopped by catalase (150 units/ml) and CL was extracted using Folch procedure^37. Analysis of (hydroperoxy- and hydroxy-) oxidized phospholipid species was performed as described^30. TLCL and its oxidized molecular species were extracted by the Folch procedure^37 and separated on a normal phase column (Luna 3 μm Silica 100A, 150×2 mm, Phenomenex, Torrance Calif.). […] The ESI probe was operated at a voltage differential of 3.5-5.0 kV in the negative ion mode. Capillary temperature was maintained at 150° C. Using range zoom (200-2000 m/z) in negative ion mode, the centroid spectra were acquired.
# Small unilamellar liposomes were prepared from dioleoylphosphatidylcholine (DOPC) and TOCL (1:1 ratio) or DOPC and TLCL (4:1 ratio) by sonication in HEPES buffer (20 mM with 100 μM diethylene triamine pentaacetic acid (DTPA) (pH 7.4) 3×60 sec, relaxation time 2 min, 4° C.).
# [4] = test system: caspase-3 activation in S-100 from mouse embryonic cells; experiment: Cell-free apoptosis system (S100): caspase-3 activation by exogenous cyt c/dATP; format: biochemical; conditions: S100, 1 mM dATP, 1 μM cyt c, 90 min
# Protocol: The cytosol extracts (S100) of mouse embryonic cells were obtained as described previously^38 with minor modifications. Briefly, the cells were washed twice in cold phosphate-buffered saline, pH 7.4, and the resulting pellet was resuspended in buffer containing 25 mM HEPES-KOH, pH 7.0, 10 mM KCl, 1.5 mM MgCl2, 1 mM EDTA, 1 mM EGTA, 1 mM DTT, 0.1 mM phenylmethylsulfonyl fluoride, 0.05% digitonin, and 1% protease inhibitor mixture for 2 min at 4° C. Cells were centrifuged at 4° C. for 10 min at 10,000×g. The resulting supernatant was further centrifuged at 4° C. for 50 min at 100,000×g. The supernatant was collected as S-100 and kept at −80° C. until further use. For caspase-3 activation, S100 (5 μg of protein/μl) was incubated with 1 mM dATP and 1 μM cyt c for 90 min at 37° C. The caspase-3 activity was evaluated using Enzchek caspase-3 assay kit as described in the manufacturer's manual (Invitrogen, Carlsbad, Calif.).
# [5] = test system: C57BL/6NTac female mice; experiment: Survival of mice after 9.25 Gy total body irradiation, cesium irradiator; format: in vivo, mouse; conditions: for radiomitigative effect (survival): i.p. 5 mg per kg, 10 min after irradiation
# [6] = test system: mouse embryonic cells; experiment: Clonogenic survival of mouse embryonic cells after γ-irradiation; format: cell-based; conditions: 2.5 μM added 30 min post γ-irradiation; single-hit multi-target model; untreated 1.33±0.08
# Protocol: Cells were plated in 35-mm dishes with 2 ml culture medium at the appropriate density (between 100 and 1000 cells per dish). TPP-ISA (2.5 μM) or TPP-IOA (2.5 μM) was added to the cell culture 30 min post γ-irradiation. Medium containing TPP-ISA or TPP-IOA was replaced with fresh complete culture medium after 4 hrs. Colonies were fixed and stained with 0.25% crystal violet and 10% formalin (35% v/v) in 80% methanol for 30 min after a 7-day incubation, and those with >50 cells were scored as survivors. The surviving fraction was calculated as the plating efficiency (=number of colonies counted/number of cells seeded×100%) of samples relative to that of control. The data were fitted to a single-hit multi-target model. D0—the dose needed to reduce cell surviving fraction to 37% (1/e)—was estimated from the curves fitted to evaluate the radiomitigative effects of TPP-ISA and TPP-IOA.
# [7] = test system: C57BL/6NTac female mice; experiment: Health of non-irradiated mice after i.p. injection; format: in vivo, mouse; conditions: i.p. 5 mg per kg body weight, period of study 52 days
# [8] = 2.5 mg/kg body weight i.p., 10 min after 9.25 Gy
# [9] = 5 mg/kg body weight i.p., 10 min after 9.25Gy
# [10] = 5 mg/kg body weight i.p., 10 min before 9.25Gy
# [11] = 5 mg/kg body weight i.p., 1 hr before 9.25Gy
# [12] = 5 mg/kg body weight i.p., 5 hr after 9.25Gy
# [13] = 5 mg/kg body weight i.p., 24 hr after 9.25Gy
compound,measurement,setting,value
CCCCCCC(C/C=C\CCCCCCCC(=O)OCCC[P+](c1ccccc1)(c1ccccc1)c1ccccc1)n1ccnc1.[Br-] (stereo not drawn) [TPP-IOA],"mitigating the mice against irradiation, lower dose","[1]; 2.5 mg per kg body weight, 10 min after irradiation",not effective
same,Overall Survival (52 days): Median Survival (95% Confidence Interval),[1]; [8],"17 (14, —) days"
same,Survival Over First 20 Days: Median Survival (95% Confidence Interval),[1]; [8],"17 (14, —) days"
same,Overall Survival (52 days): p versus irradiated mice,[1]; [8],0.0525
same,Survival Over First 20 Days: p versus irradiated mice,[1]; [8],0.0525
same,survival when given at later time points after irradiation,"[1]; 5 mg per kg, 5 or 24 h after irradiation",significant increase in survival
same,protection when given before irradiation,"[1]; 5 mg per kg, 10 min or 1 h before irradiation",protective
same,Overall Survival (52 days): Median Survival (95% Confidence Interval),[1]; [9],"— (—, —)"
same,Survival Over First 20 Days: Median Survival (95% Confidence Interval),[1]; [9],"— (—, —)"
same,Overall Survival (52 days): p versus irradiated mice,[1]; [9],<0.0001
same,Survival Over First 20 Days: p versus irradiated mice,[1]; [9],<0.0001
same,Overall Survival (52 days): p versus irradiated mice,[1]; [10],0.0009
same,Survival Over First 20 Days: p versus irradiated mice,[1]; [10],0.0009
same,Overall Survival (52 days): p versus irradiated mice,[1]; [11],0.0230
same,Survival Over First 20 Days: p versus irradiated mice,[1]; [11],0.0230
same,Overall Survival (52 days): p versus irradiated mice,[1]; [12],0.0030
same,Survival Over First 20 Days: p versus irradiated mice,[1]; [12],0.0030
same,Overall Survival (52 days): Median Survival (95% Confidence Interval),[1]; [13],"18 (13, —) days"
same,Survival Over First 20 Days: Median Survival (95% Confidence Interval),[1]; [13],"18 (13, —) days"
same,Overall Survival (52 days): p versus irradiated mice,[1]; [13],0.0416
same,Survival Over First 20 Days: p versus irradiated mice,[1]; [13],0.0416
same,"necrotic cells (PI-positive, Annexin V-positive) after irradiation and treatment",[2],8.2%
same,"apoptotic cells (PI-negative, Annexin V-positive) after irradiation and treatment",[2],14.8%
same,decrease in the number of apoptotic cells,[2]; versus irradiated only cells,twofold
same,reduction in the number of necrotic cells,[2]; versus irradiated only cells,1.6 fold
same,inhibition of cyt c/H2O2-induced oxidation of TLCL,[3],inhibited cyt c/H2O2-induced oxidation of TLCL in a concentration-dependent manner
same,oxidation of TLCL at ratio of cyt c to compound of 1:20,[3],completely blocked
same,caspase activation caused by exogenously added cyt c,[4],completely insensitive
same,"P (two-sided log-rank test), TPP-IOA versus TPP-ISA",[5]; 5 mg per kg 10 min after irradiation,0.6389
same,radiomitigative effect (survival),[5],strong radiomitigative effect
same,"D0, the dose needed to reduce cell surviving fraction to 37% (1/e)",[6],1.71±0.05
same,adverse side effects in non-irradiated mice,[7],no adverse side effects were noticed
CCCCCCC(CCCCCCCCCCC(=O)OCCC[P+](c1ccccc1)(c1ccccc1)c1ccccc1)n1ccnc1.[Br-] (stereo not drawn) [TPP-ISA],Overall Survival (52 days): p versus irradiated mice,[1]; [9],0.0114
same,Survival Over First 20 Days: p versus irradiated mice,[1]; [9],0.0114
same,"necrotic cells (PI-positive, Annexin V-positive) after irradiation and treatment",[2],7.8%
same,"apoptotic cells (PI-negative, Annexin V-positive) after irradiation and treatment",[2],13.9%
same,inhibition of cyt c/H2O2-induced oxidation of TLCL,[3],inhibited cyt c/H2O2-induced oxidation of TLCL in a concentration-dependent manner
same,oxidation of TLCL at ratio of cyt c to compound of 1:20,[3],completely blocked
same,caspase activation caused by exogenously added cyt c,[4],completely insensitive
same,radiomitigative effect (survival),[5],strong radiomitigative effect
same,"D0, the dose needed to reduce cell surviving fraction to 37% (1/e)",[6],1.67±0.06
same,adverse side effects in non-irradiated mice,[7],no adverse side effects were noticed
